Source: patent publication US5364631A, “Tocopherol-based pharmaceutical systems” (The Liposome Company, Inc., priority 1993, dated 1994)
Blank lines part the entries; values can stand above or below the compound they belong to.

Legend:
[1] = cited from earlier work
[2] = stabilization of THS into the bilayer phase at acidic pH (detergent/surfactant screening)
From the text: Stabilizers are defined as compounds which allow the formation and/or maintenance of the bilayer state of d-alpha-tocopherol acid succinate based liposomes in an acidic pH environment.

[3] = cited from earlier work; remark: listed apart in the source
[4] = freeze fracture electron microscopy / appearance of THS bilayers, effect of pH; assay type: physicochemical
Protocol: Characterizing the pH-dependent polymorphic nature of the THS is of importance in designing drug delivery systems comprising THS.
An aliquot (0.1-0.3 ul) of the 10% THS vesicle specimen was sandwiched between a pair of Balzers (Nashua, NH) copper support plates and rapidly plunged from 23° C. into liquid propane. Samples were fractured and replicated on a double replicating device in a Balzers freeze-fracture unit at a vacuum of 2×10^-6 mbar or better and at -115° C. Replicas were floated off in 3N HNO3, followed by washing in a graded series of Chlorox solutions. These were finally cleaned in distilled water and picked up on 300 Hex mesh copper grids (Polysciences, PA). Replicas were viewed on a Philips 300 electron microscope at a magnification of 22,000 times.

Compound: CC[C@@H]1C(=O)OC[C@@H]1Cc1cncn1C [pilocarpine]
chemical stability at high pH ([1]; high pH, base-catalyzed hydrolysis): unstable at high pH
chemical stability at lower pH ([1]; lower pH (protonated)): more stable
chemical stability in pilocarpine and THS mixtures ([1]; pH values around 7.0): chemically unstable

Compound: Cc1c(C)c2c(c(C)c1OC(=O)CCC(=O)O)CC[C@@](C)(CCC[C@H](C)CCC[C@H](C)CCCC(C)C)O2 [THS, d-alpha-tocopherol acid succinate]
pH range in which aqueous suspensions are in the bilayer phase ([3]; aqueous suspension): 6.0-9.0 pH
phase formed on lowering the pH below about 6.0 or introducing divalent cations ([3]; pH below about 6.0 or Mg++ or Ca++): produces vesicle aggregation and fusion, and induces hexagonal phase (hexII) formation
precipitation upon lowering the pH ([4]; lowered pH, no stabilizer): precipitates resembling hexII phase lipid are formed
vesicle morphology by freeze fracture electron microscopy ([4]; pH 7.0): heterogenous population of multilamellar and unilamellar vesicles

Compound: CCCCCCCCCCCCCCCCCC(=O)OCC(O)CO (centres unmarked) [glycerol monostearate]
stabilization of THS into the bilayer phase [2]: do not stabilize the preparations

Compound: Cc1c(C)c2c(c(C)c1OC(=O)CCC(=O)O)CCC(C)(CCCC(C)CCCC(C)CCCC(C)C)O2 (centres unmarked) [t-THS, tris(hydroxymethyl)aminomethane)-tocopherol hemisuccinate]
trapping efficiency of closed multilamellar vesicles ([3]; physiological pH): high trapping efficiencies

The next lines start with the values.

stabilization of THS into the bilayer phase [2]: do not stabilize the preparations
Compound: sorbitan monopalmitate

stabilization of THS into the bilayer phase [2]: do not stabilize the preparations
Compound: sorbitan monolaurate
